Assay results taken from patent US10399989B2, “Pyrazolopyrimidine derivatives as BTK inhibitors for the treatment of cancer” (Loxo Oncology, Inc., priority 2016, dated 2019).
Read-outs that look alike come from different tables or passages of the source.

Key:
BTK^WT = BTK^WT (Homo sapiens (Human), UniProt Q06187); test: BTK^WT binding affinity (TR-FRET, LanthaScreen)
Method in brief: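 Tracer-displacement TR-FRET: 2.5 nM recombinant BTK, 2 nM Eu anti-His antibody and 15 nM Kinase Tracer 236 in Kinase Buffer A with inhibitor for 5 h. Emission read at 615/665 nm (excitation 340 nm); IC50 from variable-slope fit of log concentration vs response.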

BTK^C481S = BTK^C481S (Homo sapiens (Human), UniProt Q06187, C481S); test: BTK^C481S binding affinity (TR-FRET, LanthaScreen); details: 5 h incubation
BTK^C481S, sequence (Q06187 whole entry C481S): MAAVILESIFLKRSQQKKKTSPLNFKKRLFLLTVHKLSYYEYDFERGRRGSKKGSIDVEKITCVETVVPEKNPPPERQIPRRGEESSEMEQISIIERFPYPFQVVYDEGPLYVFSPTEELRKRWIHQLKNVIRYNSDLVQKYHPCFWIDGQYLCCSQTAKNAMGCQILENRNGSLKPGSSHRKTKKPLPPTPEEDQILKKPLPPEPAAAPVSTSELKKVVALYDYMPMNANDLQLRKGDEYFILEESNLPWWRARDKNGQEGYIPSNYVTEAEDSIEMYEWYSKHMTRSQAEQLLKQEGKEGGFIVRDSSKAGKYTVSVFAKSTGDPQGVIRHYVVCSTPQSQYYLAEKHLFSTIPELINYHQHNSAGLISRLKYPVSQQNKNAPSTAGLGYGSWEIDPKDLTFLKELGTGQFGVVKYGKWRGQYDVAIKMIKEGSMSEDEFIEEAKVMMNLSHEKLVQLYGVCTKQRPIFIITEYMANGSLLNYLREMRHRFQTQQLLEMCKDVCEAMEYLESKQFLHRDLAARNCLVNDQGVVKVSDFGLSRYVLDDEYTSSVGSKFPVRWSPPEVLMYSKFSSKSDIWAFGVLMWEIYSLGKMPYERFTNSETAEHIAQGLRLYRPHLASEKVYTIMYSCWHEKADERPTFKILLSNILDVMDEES
Method in brief: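 Tracer-displacement TR-FRET: 5 nM recombinant kinase, 2 nM Eu anti-His antibody and 30 nM Kinase Tracer 236 incubated 5 h with varying inhibitor in Kinase Buffer A. Read at 340 nm excitation, 615/665 nm emission. IC50 from log[inhibitor]–response variable-slope fit.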

EGFR = EGFR (Homo sapiens (Human), UniProt P00533); test: EGFR binding affinity (TR-FRET, LanthaScreen); details: 5 h incubation
EGFR, sequence (P00533 25-1210): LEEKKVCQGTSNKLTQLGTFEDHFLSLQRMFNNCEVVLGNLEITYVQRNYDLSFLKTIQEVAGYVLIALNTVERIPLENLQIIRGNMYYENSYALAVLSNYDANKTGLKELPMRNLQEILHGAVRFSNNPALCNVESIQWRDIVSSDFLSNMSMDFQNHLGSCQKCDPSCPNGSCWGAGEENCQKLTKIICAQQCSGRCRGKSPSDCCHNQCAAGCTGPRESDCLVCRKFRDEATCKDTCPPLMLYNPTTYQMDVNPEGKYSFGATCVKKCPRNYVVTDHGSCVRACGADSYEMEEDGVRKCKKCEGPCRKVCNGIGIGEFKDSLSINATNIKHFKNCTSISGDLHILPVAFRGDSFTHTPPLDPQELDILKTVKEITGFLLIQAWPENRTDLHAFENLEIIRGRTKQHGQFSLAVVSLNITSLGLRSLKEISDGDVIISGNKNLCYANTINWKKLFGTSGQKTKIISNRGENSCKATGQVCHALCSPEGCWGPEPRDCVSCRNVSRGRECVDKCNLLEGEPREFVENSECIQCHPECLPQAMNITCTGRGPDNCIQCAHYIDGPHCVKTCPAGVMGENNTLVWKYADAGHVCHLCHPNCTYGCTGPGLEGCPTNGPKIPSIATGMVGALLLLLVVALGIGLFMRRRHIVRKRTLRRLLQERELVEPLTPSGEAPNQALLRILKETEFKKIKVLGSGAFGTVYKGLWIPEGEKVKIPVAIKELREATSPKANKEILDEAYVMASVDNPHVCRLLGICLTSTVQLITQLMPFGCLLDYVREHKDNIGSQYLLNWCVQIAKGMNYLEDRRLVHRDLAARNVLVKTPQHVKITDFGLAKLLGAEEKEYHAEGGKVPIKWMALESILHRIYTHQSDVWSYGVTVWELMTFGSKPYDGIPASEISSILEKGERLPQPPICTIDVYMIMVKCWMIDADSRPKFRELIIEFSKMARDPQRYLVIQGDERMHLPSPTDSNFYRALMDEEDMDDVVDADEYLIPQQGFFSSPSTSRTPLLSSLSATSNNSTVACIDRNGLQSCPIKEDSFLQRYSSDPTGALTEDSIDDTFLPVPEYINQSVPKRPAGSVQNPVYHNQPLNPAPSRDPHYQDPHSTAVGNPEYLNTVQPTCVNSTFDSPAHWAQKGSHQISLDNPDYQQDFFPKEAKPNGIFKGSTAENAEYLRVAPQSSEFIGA
Method in brief: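 IC50 derived by variable-slope fit of TR-FRET signal (ex 340, em 615 and 665 nm) against inhibitor concentration. Mix contained recombinant GST-detected EGFR at 2.5 nM, Eu anti-GST antibody at 2 nM and Kinase Tracer 199 at 3 nM in Kinase Buffer A, 5 h incubation.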

[1] = test system: OCI-Ly10 human DLBCL cells; test: OCI-Ly10 anti-proliferative activity (Resazurin, 72 h); type: cell-based; details: Homo sapiens, OCI-Ly10, 72 h, read-out: Proliferation OCI-Ly10-IC50
Protocol: Compounds were assayed for effects on the growth of OCI-Ly10 human DLBCL cells that are dependent on NFκB signalling. OCI-Ly10 cells were grown in suspension in T225 flasks, centrifuged and re-suspended in 2.5% FBS containing media. Cells were then plated at 7.5×10^3 cells per well in 96-well plates in varying concentrations of compound and incubated for 72 h at 37° C. An additional plate of cells to be used as the Day 0 read was seeded without compound addition, Resazurin was added to each well, incubated for 5 h and the fluorescence measured at 590 nm. After 72 h of compound treatment, Resazurin was added to each well of the compound treated plates, incubated for 5 h and the fluorescence measured at 590 nm. The IC50 was then calculated by subtracting the average Day 0 value from each well value from the treated plates, each treatment was then calculated as a percentage of the DMSO control and the percentages plotted against the inhibitor concentration to estimate the IC50 from log [Inhibitor] vs response using the Variable Slope model in Graphpad prism from Graphpad software (SanDiego, Calif.).

[2] = TR-FRET binding, 5 h incubation, read-out: BTK^WT IC50
[3] = Table 6, numeric values, read-out: BTK Binding IC50

BTK^WT, sequence (Q06187 whole entry): as the sequence (Q06187 whole entry C481S) above, with S481C counted along it

IC50 (BTK^WT; [2]) [nM] | IC50 (BTK^WT; [3]) [nM] | IC50 (BTK^C481S) [nM] | IC50 (EGFR) [nM] | IC50 [1] [nM] | Compound
≤ 10 | 1.4 | ≤ 10 | 100 to 1000 | 10 to 100 | COc1ccccc1C(=O)NCc1ccc(-c2nn(C3CCC(OC)CC3)c3ncnc(N)c23)cc1 (centres unmarked) [Example 39, N-[[4-[4-amino-1-(4-methoxycyclohexyl)pyrazolo[3,4-d]pyrimidin-3-yl]phenyl]methyl]-2-methoxy-benzamide]
≤ 10 |  | ≤ 10 | 100 to 1000 | 10 to 100 | COc1ccccc1C(=O)NCc1ccc(-c2nn(C3CC=CC3)c3ncnc(N)c23)cc1 [Example 40, N-[[4-(4-amino-1-cyclopent-3-en-1-yl-pyrazolo[3,4-d]pyrimidin-3-yl)phenyl]methyl]-2-methoxy-benzamide]
≤ 10 | 1.2 | ≤ 10 | 100 to 1000 | 100 to 1000 | CCOC(=O)C1CCCC(n2nc(-c3ccc(CNC(=O)c4ccccc4OC)cc3)c3c(N)ncnc32)C1 (centres unmarked) [Example 41, ethyl 3-[4-amino-3-[4-[[(2-methoxybenzoyl)amino]methyl]phenyl]pyrazolo[3,4-d]pyrimidin-1-yl]cyclohexanecarboxylate]
≤ 10 |  | ≤ 10 | 1000 to 10000 | 100 to 1000 | COc1ccccc1C(=O)NCc1ccc(-c2nn(C3CCCC(C(=O)N(C)C)C3)c3ncnc(N)c23)cc1 (centres unmarked) [Example 42, N-[[4-[4-amino-1-[3-(dimethylcarbamoyl)cyclohexyl]pyrazolo[3,4-d]pyrimidin-3-yl]phenyl]methyl]-2-methoxy-benzamide]
≤ 10 |  | ≤ 10 | 100 to 1000 | 10 to 100 | COc1ccc(F)cc1C(=O)NCc1ccc(-c2nn(C(C)(C)C)c3ncnc(N)c23)cc1 [Example 43, N-[[4-(4-amino-1-tert-butyl-pyrazolo[3,4-d]pyrimidin-3-yl)phenyl]methyl]-5-fluoro-2-methoxy-benzamide]
≤ 10 |  | ≤ 10 | 1000 to 10000 | 100 to 1000 | COc1ccccc1C(=O)NCc1ccc(-c2nn([C@@H]3C=C[C@H](O)C3)c3ncnc(N)c23)cc1 [Example 44, N-[[4-[4-amino-1-[(1S,4R)-4-hydroxycyclopent-2-en-1-yl]pyrazolo[3,4-d]pyrimidin-3-yl]phenyl]methyl]-2-methoxy-benzamide]
≤ 10 |  | ≤ 10 | 100 to 1000 | 100 to 1000 | COc1ccccc1C(=O)NCc1ccc(-c2nn([C@@H]3C[C@@H](O)C4CC43)c3ncnc(N)c23)cc1 (stereo partly drawn) [Example 45, N-[[4-[4-amino-1-[(2R,4R)-4-hydroxy-2-bicyclo[3.1.0]hexanyl]pyrazolo[3,4-d]pyrimidin-3-yl]phenyl]methyl]-2-methoxy-benzamide]
10 to 100 |  | 10 to 100 | 100 to 1000 | 100 to 1000 | COc1ccccc1C(=O)NCc1ccc(-c2nn(C3CCC(OC(=O)c4ccc(C)cc4)CC3)c3ncnc(N)c23)cc1 (centres unmarked) [Example 46, [4-[4-amino-3-[4-[[(2-methoxybenzoyl)amino]methyl]phenyl]pyrazolo[3,4-d]pyrimidin-1-yl]cyclohexyl] 4-methylbenzoate]
≤ 10 |  | ≤ 10 | 100 to 1000 | 100 to 1000 | COc1ccccc1C(=O)NCc1ccc(-c2nn([C@H]3C=C[C@@H](O)C3)c3ncnc(N)c23)cc1 [Example 47, N-[[4-[4-amino-1-[(1R,4S)-4-hydroxycyclopent-2-en-1-yl]pyrazolo[3,4-d]pyrimidin-3-yl]phenyl]methyl]-2-methoxy-benzamide]
10 to 100 |  | ≤ 10 | 1000 to 10000 | 100 to 1000 | COc1ccccc1C(=O)NCc1ccc(-c2nn([C@H]3C=C[C@@H](OC(=O)C(C)(C)C)C3)c3ncnc(N)c23)cc1 [Example 48, [(1S,4R)-4-[4-amino-3-[4-[[(2-methoxybenzoyl)amino]methyl]phenyl]pyrazolo[3,4-d]pyrimidin-1-yl]cyclopent-2-en-1-yl] 2,2-dimethylpropanoate]
≤ 10 | 0.4 | ≤ 10 | 10 to 100 | 10 to 100 | COc1ccccc1C(=O)NCc1ccc(-c2nn(C3C=CCCC3)c3ncnc(N)c23)cc1 (centres unmarked) [Example 49, N-[[4-(4-amino-1-cyclohex-2-en-1-yl-pyrazolo[3,4-d]pyrimidin-3-yl)phenyl]methyl]-2-methoxy-benzamide]
≤ 10 |  | ≤ 10 | 100 to 1000 | 100 to 1000 | COc1ccccc1C(=O)NCc1ccc(-c2nn([C@@H]3C=C[C@@H](O)C3)c3ncnc(N)c23)cc1 [Example 50, N-[[4-[4-amino-1-[(1S,4S)-4-hydroxycyclopent-2-en-1-yl]pyrazolo[3,4-d]pyrimidin-3-yl]phenyl]methyl]-2-methoxy-benzamide]
≤ 10 | 0.6 | ≤ 10 | 10 to 100 | 10 to 100 | COc1ccccc1C(=O)NCc1ccc(-c2nn(C(C)(C)C)c3ncnc(N)c23)cc1 [Example 51, N-[[4-(4-amino-1-tert-butyl-pyrazolo[3,4-d]pyrimidin-3-yl)phenyl]methyl]-2-methoxy-benzamide]
≤ 10 |  | ≤ 10 | 10 to 100 | 10 to 100 | COc1ccccc1C(=O)NCc1ccc(-c2nn(C3CC4CC4C3)c3ncnc(N)c23)cc1 (centres unmarked) [Example 52, N-[[4-[4-amino-1-(3-bicyclo[3.1.0]hexanyl)pyrazolo[3,4-d]pyrimidin-3-yl]phenyl]methyl]-2-methoxy-benzamide]
10 to 100 |  | ≤ 10 | 1000 to 10000 | 1000 to 10000 | COc1ccc(F)cc1C(=O)NCc1ccc(-c2nn([C@H]3C=C[C@H](O)C3)c3ncnc(N)c23)cc1 [Example 53, N-[[4-[4-Amino-1-[(1R,4R)-4-hydroxycyclopent-2-en-1-yl]pyrazolo[3,4-d]pyrimidin-3-yl]phenyl]methyl]-5-fluoro-2-methoxy-benzamide]
≤ 10 | 0.7 | ≤ 10 | 1000 to 10000 | 100 to 1000 | COc1ccccc1C(=O)NCc1ccc(-c2nn([C@H]3C=C[C@H](F)C3)c3ncnc(N)c23)cc1 [Example 54, N-[(4-{4-amino-1-[(1R,4R)-4-fluorocyclopent-2-en-1-yl]-1H-pyrazolo[3,4-d]pyrimidin-3-yl}phenyl)methyl]-2-methoxybenzamide]
10 to 100 |  | 10 to 100 | 1000 to 10000 | 100 to 1000 | CCO[C@H]1C=C[C@H](n2nc(-c3ccc(CNC(=O)c4ccccc4OC)cc3)c3c(N)ncnc32)C1 [Example 55, N-[(4-{4-amino-1-[(1R,4R)-4-ethoxycyclopent-2-en-1-yl]-1H-pyrazolo[3,4-d]pyrimidin-3-yl}phenyl)methyl]-2-methoxybenzamide]
100 to 1000 |  | 1000 to 10000 | 1000 to 10000 | 100 to 1000 | COCCO[C@H]1C=C[C@H](n2nc(-c3ccc(CNC(=O)c4ccccc4OC)cc3)c3c(N)ncnc32)C1 [Example 57, N-[[4-[4-amino-1-[(1R,4R)-4-(2-methoxyethoxy)cyclopent-2-en-1-yl]pyrazolo[3,4-d]pyrimidin-3-yl]phenyl]methyl]-2-methoxy-benzamide]
≤ 10 |  | ≤ 10 | 1000 to 10000 | 100 to 1000 | COCCNc1ncnc2c1c(-c1ccc(CNC(=O)c3ccccc3OC)cc1)nn2[C@H]1C=C[C@H](O)C1 [Example 58, N-[[4-[1-[(1R,4R)-4-hydroxycyclopent-2-en-1-yl]-4-(2-methoxyethylamino)pyrazolo[3,4-d]pyrimidin-3-yl]phenyl]methyl]-2-methoxy-benzamide]
10 to 100 |  | 10 to 100 | 1000 to 10000 | 100 to 1000 | COc1ccccc1C(=O)NCc1ccc(-c2nn([C@H]3C=C[C@H](N)C3)c3ncnc(N)c23)cc1 [Example 59, N-[(4-{4-amino-1-[(1R,4R)-4-aminocyclopent-2-en-1-yl]-1H-pyrazolo[3,4-d]pyrimidin-3-yl}phenyl)methyl]-2-methoxybenzamide]
≤ 10 |  | ≤ 10 | 1000 to 10000 | 100 to 1000 | COc1ccccc1C(=O)NCc1ccc(-c2nn([C@H]3C=C[C@H](NC(C)=O)C3)c3ncnc(N)c23)cc1 [Example 60, N-[[4-[1-[(1R,4R)-4-acetamidocyclopent-2-en-1-yl]-4-amino-pyrazolo[3,4-d]pyrimidin-3-yl]phenyl]methyl]-2-methoxy-benzamide]
